Measurements published in ChEMBL document CHEMBL1201862, “PubChem BioAssay data set” (2004).
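Five compound concentrations were applied to cells in 96-well plates for 48 hours; endpoints were derived by simple linear interpolation of the resulting dose-response curve. GI50 is the concentration that inhibits growth by half.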 Calls of active or inactive are those of the source. Cut-off read from the data, not from the text of the source: active = GI50 up to about 1.1 µM and inactive = higher.

Tests used:
Test in all cases: DTP human tumour cell line panel, 48 h
BT-549 = system: BT-549
DU-145 = system: DU-145
MDA-MB-435 = system: MDA-MB-435
MDA-N = system: MDA-N
PC-3 = system: PC-3

Measured: GI50

COC(=O)C1=C(OC(=O)/C(=C/c2ccc(Cl)cc2)c2ccc(Cl)cc2)C(C(=O)OC)[C@]2(O)[C@@H](C(=O)OC)[C@H]1C[C@@H](c1ccccc1)[C@@H]2C(=O)OC (stereo not given in full)
inactive: BT-549 90.4 µM | DU-145 > 100 µM | MDA-MB-435 > 100 µM | MDA-N > 100 µM | PC-3 62.5 µM
